Values of other authors in patent US20200386739A1, “TREATMENT OF METAHNOGENIC BACTERIA AS A THERAPY FOR CHRONIC LUNG DISEASE” (priority 2019, published 2020).
Positions of bridges follow the written chain, without caps; N, C: chain ends. Non-standard residues stand in square brackets, D forms with d. Residues, ends and D or L forms follow the SMILES beside them. *: point of attachment. Ileψ(thiazoline)Cys = CC[C@H](C)[C@H](N)C1=N[C@H](C(=O)*)CS1; dOrn = NCCC[C@@H](N)C(=O)O

How the values were obtained:
[1] = tested on: guinea pig muscle strips from the ileum
Methanogens = details: cell wall lacks peptidoglycan
guinea pig ileum = guinea pig ileum exposed to methane
small intestine of dogs = details: in vivo infusion of methane into the small intestine of dogs; scintigraphy
[2] = tested on: methane producing patients with IBS-C and chronic constipation

SMILES: CN1[C@@H]2CC[C@H]1C[C@@H](OC(=O)C(CO)c1ccccc1)C2 (some centres unmarked) [atropine]
- effect on the methane-induced increase of contractile amplitude [1]: reduced

SMILES: CC[C@H](C)[C@H](N)C1=N[C@H](C(=O)N[C@@H](CC(C)C)C(=O)N[C@H](CCC(=O)O)C(=O)N[C@H](C(=O)N[C@H]2CCCCNC(=O)[C@H](CC(N)=O)NC(=O)[C@@H](CC(=O)O)NC(=O)[C@H](Cc3cnc[nH]3)NC(=O)[C@@H](Cc3ccccc3)NC(=O)[C@H]([C@@H](C)CC)NC(=O)[C@@H](CCCN)NC2=O)[C@@H](C)CC)CS1 [bacitracin] ({Ileψ(thiazoline)Cys}-L[dE]IK[dOrn]I[dF]H[dD]N; lactam 4-C)
- susceptibility of methanogens (Methanogens): susceptible

SMILES: O=C(N[C@H](CO)[C@H](O)c1ccc([N+](=O)[O-])cc1)C(Cl)Cl [chloramphenicol]
- susceptibility of methanogens (Methanogens): susceptible

SMILES: C [methane]
- contractile amplitude ([1]; methane infusion, ileum muscle strips): increased
- amplitude of contractions (guinea pig ileum): increased
- area under the curve (AUC) of intraluminal pressure (guinea pig ileum): increased
- peristaltic velocity (guinea pig ileum): significantly decreased
- slowing of small intestinal transit time (small intestine of dogs): 59%

SMILES: CO[C@H]1/C=C/O[C@@]2(C)Oc3c(C)c(O)c4c(O)c(c5c(nc6cc(C)ccn65)c4c3C2=O)NC(=O)/C(C)=C\C=C\[C@H](C)[C@H](O)[C@@H](C)[C@@H](O)[C@@H](C)[C@H](OC(C)=O)[C@@H]1C [rifaximin]
- colonic transit time and constipation symptoms [2]: improvement
- methane production [2]: reduced

SMILES: NC1=N[C@H](O)[C@H]2[C@H]3O[C@]4(O)O[C@@H]([C@@H](O)[C@@]2(N1)[C@@H]4O)[C@]3(O)CO [tetrodotoxin]
- effect on the methane-induced increase of contractile amplitude [1]: blocked
